Consider 53 compounds from PubChem BioAssay AID1035470 (Broad Institute, 2014).

For this assay, the system named is E. coli WT-GFP vs G2058-humanized RFP, fluorescence, 24 h. Kind of assay: growth inhibition of wild-type GFP E. coli versus G2058-humanized strain, dose response, G2058 mutant RFP vs wild-type GFP, cherry-pick, two tests (AID 1035470).
Where [1] appears, read: E. coli WT-GFP vs G2058-humanized RFP mixed culture, total growth OD600, 24 h.
Where [2] appears, read: measured here: G2058 humanized mutant RFP growth.

Records with an inconclusive call do not appear. The source made the active and inactive calls.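 Rule for the calls: active = compound lowering the normal-ribosome reporter at least twice as much as the humanized-ribosome reporter, growth loss under a set limit; inconclusive = no clear call, values can overlap the other calls; inactive = the rest.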

One may read the AC50 as the concentration at which the activity in the assay is half-maximal.

On to `Cc1cc(C(=O)Nc2ccc3ccccc3c2)c(C)o1`, for which the AC50 is > 100 µM (inactive). For the same compound, the AC50 under setting [1] was more than 100 µM. As to `Cc1ccc(Cn2cnc3ccccc32)cc1`, the AC50 is > 100 µM (inactive). Turning to `CN(C)S(=O)(=O)c1cccc(C(=O)Nc2ccc(C(=O)Nc3cccc(S(N)(=O)=O)c3)cc2)c1`, the AC50 is > 100 µM (inactive). Consider `CCN(CC)CC(=O)Nc1ccc(-c2ccc(NC(=O)CN(CC)CC)c(OC)c2)cc1OC`, for which the AC50 was > 100 µM (inactive). Under setting [1], this compound registered an AC50 of more than 100 µM.

With `O=S(=O)(NOCc1ccc(Cl)cc1)c1ccc(Cl)cc1`, the AC50 under setting [1] was more than 100 µM. Under setting [2], `COC(=O)c1ccsc1NC(=O)c1cccc(OC)c1` gave an AC50 of 5.79 µM. Turning to `CCn1ncc(Br)c1C(=O)Nc1ccc2c(c1)OCCO2`, the AC50 was > 100 µM (inactive). Regarding `O=C(C[n+]1ccc(Cc2ccccc2)cc1)Nc1ccc([N+](=O)[O-])cc1Cl`, the AC50 under setting [2] was more than 100 µM. Take `CCCCCCC(=O)N1CCCC(c2nc(-c3cccc(OC)c3)no2)C1` (stereo not drawn): the AC50 was > 100 µM (inactive). Moreover, the AC50 under setting [2] is more than 100 µM.

Regarding `Cc1ccc(-c2c[n+](CC(=O)Nc3ccccc3)c3n2CCC3)cc1`, the AC50 under setting [2] is more than 100 µM. As to `CC[N+](CC)(CC#Cc1ccccc1)CC#Cc1ccccc1`, the AC50 was > 100 µM (inactive). The compound further returned an AC50 under setting [1] of more than 100 µM.

Take `Cc1ccccc1-n1c([C@@H]2C[C@H]2c2ccccc2)n[nH]c1=S`: the AC50 under setting [1] is more than 100 µM. As for `Cc1cc(C)c(S(=O)(=O)NCCOc2ccccc2)c(C)c1-n1cnnn1`, the AC50 was > 100 µM (inactive). In the case of `O=C(c1ccc(N2CCCCC2)c([N+](=O)[O-])c1)N1CCN(c2ccccn2)CC1`, under setting [1], the AC50 was more than 100 µM. On to `CC(C)(C)c1ccc(S(=O)(=O)NCc2ccc(C(=O)NCc3ccccn3)cc2)cc1`, for which the AC50 was > 100 µM (inactive). The AC50 under setting [1] is more than 100 µM. Turning to `Brc1cc2c(cc1Br)OCCOCCOCCO2`, the AC50 is > 100 µM (inactive). In addition, the AC50 under setting [1] is more than 100 µM. The AC50 under setting [2] is more than 100 µM. Take `O=C(NCc1ccco1)c1ccc(COc2cccc3ccccc23)cc1`: the AC50 was > 100 µM (inactive). In addition, the AC50 under setting [1] was more than 100 µM. Take `COc1cc2c(cc1OC)CN(CC(=O)Nc1ccccc1SC)CC2`: the AC50 is > 100 µM (inactive). The AC50 under setting [1] was more than 100 µM. The AC50 under setting [2] came out at 47.2 µM. For `COc1cccc(NC(=O)COC(=O)Cc2ccccc2[N+](=O)[O-])c1`, the AC50 is > 100 µM (inactive). Besides, the AC50 under setting [1] was more than 100 µM.

As to `Nc1ncncc1-c1ccc2ccccc2c1`, the AC50 was > 100 µM (inactive). Under setting [2], this compound came in with an AC50 of 48.9 µM. For the compound `Cc1cccc(NC(=O)c2nc(S(=O)(=O)Cc3ccccc3)ncc2Cl)c1`, under setting [1], the AC50 was more than 100 µM.

Regarding `Brc1ccccc1Cn1c(-c2cncs2)nc2ccccc21`, the AC50 was > 100 µM (inactive). For the same compound, under setting [1], the AC50 was more than 100 µM. For the same compound, the AC50 under setting [2] is more than 100 µM.

Regarding `COc1ccc(CNC(=O)c2nc(S(=O)(=O)Cc3ccccc3)ncc2Cl)cc1`, the AC50 is > 100 µM (inactive). Consider `Cc1csc2c(N3CCC(C(=O)O)CC3)ncnc12`, for which the AC50 is > 100 µM (inactive). Besides, the AC50 under setting [1] was more than 100 µM. This compound also showed a half-maximal activity concentration (AC50) under setting [2] of 50.4 µM. Take `Cc1cccc(C(=O)NCC(=O)NCCSc2ccc(Br)cc2)c1`: the AC50 was > 100 µM (inactive). The compound also had an AC50 under setting [2] of 7.48 µM. As for `CN(CCOc1ccccc1)C(=O)c1ccc(OC2CCN(C(=O)C3CC3)CC2)cc1`, the AC50 is > 100 µM (inactive). The same compound came in with an AC50 under setting [1] of more than 100 µM. On to `COc1ccccc1-c1cc2nc(NCCc3ccncc3)ccn2n1`, for which the AC50 is > 100 µM (inactive). Besides, the AC50 under setting [1] was more than 100 µM. `CCCNC(=O)c1cc(C2CCCN(S(=O)(=O)c3cccc4cccnc34)C2)on1` (stereo not drawn): the AC50 was > 100 µM (inactive). For `COc1ccc(C(=O)CSc2nc3ccccc3n2CC(=O)c2ccccc2)cc1`, the AC50 was > 100 µM (inactive). In addition, the AC50 under setting [2] was more than 100 µM. With `Cc1cc(-c2ccc(C)c(S(=O)(=O)NCC3CCN(Cc4ccccc4F)CC3)c2)on1`, the AC50 is > 100 µM (inactive). The compound also yielded an AC50 under setting [1] of more than 100 µM. Under setting [1], `Cc1cccc(-c2ccc([C@@H]3[C@@H](CO)N4CCCCN(S(=O)(=O)c5ccccc5C)C[C@H]34)cc2)c1` came in with an AC50 of more than 100 µM. Take `COC(=O)c1cccc(CN2C(=O)SC(Nc3ccc(C)cc3)C2=O)c1` (stereo not drawn): the AC50 is > 100 µM (inactive). Turning to `C[n+]1ccccc1/C=C/c1cc(Br)ccc1O`, the AC50 was > 100 µM (inactive).

Consider `COc1ccc(C(CC(=O)c2ccc(O)cc2)S(=O)(=O)c2ccc(C)cc2)cc1` (stereo not drawn), for which the AC50 is > 100 µM (inactive).

In the case of `Cc1ccc(Oc2ccc(S(=O)(=O)N3CCOCC3)cc2C(N)=O)cc1C`, the AC50 was > 100 µM (inactive). This compound returned an AC50 under setting [1] of more than 100 µM. Turning to `Cc1ccccc1-n1nnnc1SCCCC(=O)c1ccc(F)cc1`, under setting [2], the AC50 was more than 100 µM. Take `Cc1nn2c(NCc3ccccn3)cc(C(C)C)nc2c1-c1ccccc1`: the AC50 under setting [1] was more than 100 µM.

Under setting [1], `COC(=O)c1sccc1NC(=O)CNC(=O)c1ccccc1` had an AC50 of more than 100 µM. Regarding `C=CCn1c(SCc2n[nH]c(=S)n2-c2ccccc2)nnc1-c1ccccc1`, the AC50 is > 100 µM (inactive). Besides, the half-maximal activity concentration (AC50) under setting [1] is more than 100 µM. For `O=C(CSc1nnc(-c2ccccc2F)n1C1CC1)Nc1cccnc1Cl`, the AC50 is > 100 µM (inactive). Take `COc1ccc(C#Cc2ccc([C@@H]3[C@@H](CO)N4CCCCN(C(=O)Nc5ccccc5F)C[C@H]34)cc2)cc1`: the AC50 was > 100 µM (inactive). Take `COc1ccc(NC(=O)Nc2cccc3c2O[C@H](CN(C)S(=O)(=O)c2ccc(Cl)cc2)[C@H](C)CN([C@H](C)CO)C3=O)cc1`: the AC50 is > 100 µM (inactive). Regarding `COC(=O)c1ccc(C(=O)Nc2ccc3nc(-c4ccncc4)[nH]c3c2)cc1`, the AC50 was > 100 µM (inactive). Further, the AC50 under setting [1] is more than 100 µM. Turning to `COc1ccc(Nc2oc(-c3ccco3)nc2S(=O)(=O)c2ccc(F)cc2)cc1`, the AC50 was 8.11 µM. This compound displayed an AC50 (E. coli WT-GFP vs G2058-humanized RFP mixed culture, OD600 growth, 24 h, test 1) of 29 µM. In addition, the AC50 (measured here: mutant RFP, test 1) amounted to 37.6 µM. The same compound registered an AC50 (measured here: wild-type GFP, test 1) of 4.64 µM. For `Cc1cccc(NC(=O)c2sc3nc(-c4ccccc4)cn3c2C)n1`, the AC50 is > 100 µM (inactive). Under setting [1], this compound displayed an AC50 of more than 100 µM. As to `Cc1ccc(NC(=O)c2ccc([N+](=O)[O-])o2)c(C)c1`, the AC50 is > 100 µM (inactive). In turn, `NS(=O)(=O)c1ccc(NC(=O)CCC(=O)O)cc1` showed an AC50 under setting [1] of more than 100 µM. Consider `O=C(NCc1ccccc1Cl)[C@H]1CCCN1C(=O)[C@H]1CCCN1C(=O)c1cccc2ccccc12`, for which the AC50 is > 100 µM (inactive). Moreover, under setting [1], the AC50 was more than 100 µM. On the same counts, the results for `Cc1cccc(N2CCN(Cc3nc(-c4ccc(F)cc4F)oc3C)CC2)n1` are > 100 µM (inactive) and more than 100 µM. `C[C@@H]1CN([C@@H](C)CO)C(=O)CCCn2nncc2CO[C@H]1CN(C)C(=O)Nc1cccc(C(F)(F)F)c1` came in with an AC50 under setting [1] of more than 100 µM. On to `COc1cccc(-c2ccc(SCc3ccccn3)nn2)c1`, for which the AC50 was > 100 µM (inactive).

The compound `CCOC(=O)C1NN=C(C(=O)c2ccccc2)C1c1ccc(OC)cc1` (stereo not drawn) showed an AC50 under setting [1] of more than 100 µM. In the case of `NS(=O)(=O)c1ccc(Nc2c([N+](=O)[O-])cncc2[N+](=O)[O-])cc1`, the AC50 was > 100 µM (inactive).
